Measured values: PubChem BioAssay AID1259407 (Chemical Carcinogenesis Research Information System (CCRIS), 2018)
The source made the active and inactive calls. The rule behind the calls is not given here.

Test system: CCRIS mutagenicity, Ames/micronucleus/aberration tests
Assay: CCRIS mutagenicity studies
[1] = Test System: AMES SALMONELLA TYPHIMURIUM, Strain/Indicator: TA1535, Metabolic Activation: NONE, Method: STANDARD PLATE
[2] = Test System: AMES SALMONELLA TYPHIMURIUM, Strain/Indicator: TA100, Metabolic Activation: NONE, Method: PREINCUBATION
[3] = Test System: AMES SALMONELLA TYPHIMURIUM, Strain/Indicator: TA1535, Metabolic Activation: NONE, Method: PREINCUBATION
[4] = Test System: AMES SALMONELLA TYPHIMURIUM, Strain/Indicator: TA100, Metabolic Activation: NONE, Method: STANDARD PLATE

With CC(=O)OC/N=[N+](/C)[O-] the mutagenic call (Test System: AMES SALMONELLA TYPHIMURIUM, Strain/Indicator: G46, Metabolic Activation: NONE, Method: PREINCUBATION) was “active; positive”, the mutagenic call [1] was “active; positive” and the mutagenic call (Test System: CHINESE HAMSTER V-79, Strain/Indicator: V-79/OUABAIN, Metabolic Activation: NONE, Method: STANDARD PLATE) was “active; positive”. For the same compound, the mutagenic call (Test System: E. COLI, Strain/Indicator: WP2 UVRA, Metabolic Activation: HAMSTER, LIVER, S-9, AROCLOR 1254, Method: PREINCUBATION) was “inactive; negative”, the mutagenic call (Test System: E. COLI, Strain/Indicator: WP2 UVRA, Metabolic Activation: HAMSTER, LIVER, S-9, AROCLOR 1254, Method: STANDARD PLATE) was “inactive; negative” and the mutagenic call (Test System: E. COLI, Strain/Indicator: WP2 UVRA, Metabolic Activation: HAMSTER, LIVER, S-9, Method: PREINCUBATION) was “inactive; negative”. For the same compound, the mutagenic call (Test System: E. COLI, Strain/Indicator: WP2 UVRA, Metabolic Activation: HAMSTER, LIVER, S-9, Method: STANDARD PLATE) was “inactive; negative”, the mutagenic call (Test System: E. COLI, Strain/Indicator: WP2 UVRA, Metabolic Activation: MOUSE, LIVER, S-9, AROCLOR 1254, Method: PREINCUBATION) was “inactive; negative” and the mutagenic call (Test System: E. COLI, Strain/Indicator: WP2 UVRA, Metabolic Activation: MOUSE, LIVER, S-9, AROCLOR 1254, Method: STANDARD PLATE) was “inactive; negative”. The mutagenic call (Test System: E. COLI, Strain/Indicator: WP2 UVRA, Metabolic Activation: MOUSE, LIVER, S-9, Method: PREINCUBATION) was “inactive; negative”, the mutagenic call (Test System: E. COLI, Strain/Indicator: WP2 UVRA, Metabolic Activation: MOUSE, LIVER, S-9, Method: STANDARD PLATE) was “inactive; negative” and the mutagenic call (Test System: E. COLI, Strain/Indicator: WP2 UVRA, Metabolic Activation: NONE, Method: PREINCUBATION) was “inactive; negative”. For the same compound, the mutagenic call (Test System: E. COLI, Strain/Indicator: WP2 UVRA, Metabolic Activation: NONE, Method: STANDARD PLATE) was “inactive; negative”, the mutagenic call (Test System: E. COLI, Strain/Indicator: WP2 UVRA, Metabolic Activation: RAT, LIVER, S-9, AROCLOR 1254, Method: PREINCUBATION) was “inactive; negative” and the mutagenic call (Test System: E. COLI, Strain/Indicator: WP2 UVRA, Metabolic Activation: RAT, LIVER, S-9, AROCLOR 1254, Method: STANDARD PLATE) was “inactive; negative”. For the same compound, the mutagenic call (Test System: E. COLI, Strain/Indicator: WP2 UVRA, Metabolic Activation: RAT, LIVER, S-9, Method: PREINCUBATION) was “inactive; negative”, the mutagenic call (Test System: E. COLI, Strain/Indicator: WP2 UVRA, Metabolic Activation: RAT, LIVER, S-9, Method: STANDARD PLATE) was “inactive; negative” and the mutagenic call (Test System: MOUSE LYMPHOMA, Strain/Indicator: L5178Y (TK+/TK-), Metabolic Activation: NONE, Method: SUSPENSION/PLATE) was “active; positive”. The mutagenic call (Test System: MOUSE LYMPHOMA, Strain/Indicator: L5178Y (TK+/TK-), Metabolic Activation: RAT, LIVER, S-9, AROCLOR 1254, Method: SUSPENSION/PLATE) was “active; positive”.

CC(=O)NS(=O)(=O)c1ccc(N)cc1 was tested, and the mutagenic call (End Point: IN VITRO CHROMOSOMAL ABERRATIONS, Test System: CHINESE HAMSTER OVARY CELLS, Metabolic Activation: NONE) was “inactive; negative”, the mutagenic call (End Point: IN VITRO CHROMOSOMAL ABERRATIONS, Test System: CHINESE HAMSTER OVARY CELLS, Metabolic Activation: RAT, LIVER, S-9, AROCLOR 1254) was “inactive; negative” and the mutagenic call (Test System: AMES SALMONELLA TYPHIMURIUM, Strain/Indicator: TA98, Metabolic Activation: HAMSTER, LIVER, S-9, AROCLOR 1254 (10%), Method: PREINCUBATION) was “inactive; negative”. The mutagenic call (Test System: AMES SALMONELLA TYPHIMURIUM, Strain/Indicator: TA98, Metabolic Activation: NONE, Method: PREINCUBATION) was “inactive; negative”, the mutagenic call (Test System: AMES SALMONELLA TYPHIMURIUM, Strain/Indicator: TA98, Metabolic Activation: RAT, LIVER, S-9, AROCLOR 1254 (10%), Method: PREINCUBATION) was “inactive; negative” and the mutagenic call (Test System: AMES SALMONELLA TYPHIMURIUM, Strain/Indicator: TA100, Metabolic Activation: HAMSTER, LIVER, S-9, AROCLOR 1254 (10%), Method: PREINCUBATION) was “inactive; negative”. For the same compound, the mutagenic call [2] was “inactive; negative”, the mutagenic call (Test System: AMES SALMONELLA TYPHIMURIUM, Strain/Indicator: TA100, Metabolic Activation: RAT, LIVER, S-9, AROCLOR 1254 (10%), Method: PREINCUBATION) was “inactive; negative” and the mutagenic call (Test System: AMES SALMONELLA TYPHIMURIUM, Strain/Indicator: TA1535, Metabolic Activation: HAMSTER, LIVER, S-9, AROCLOR 1254 (10%), Method: PREINCUBATION) was “inactive; negative”. For the same compound, the mutagenic call [3] was “inactive; negative”, the mutagenic call (Test System: AMES SALMONELLA TYPHIMURIUM, Strain/Indicator: TA1535, Metabolic Activation: RAT, LIVER, S-9, AROCLOR 1254 (10%), Method: PREINCUBATION) was “inactive; negative” and the mutagenic call (Test System: AMES SALMONELLA TYPHIMURIUM, Strain/Indicator: TA1537, Metabolic Activation: HAMSTER, LIVER, S-9, AROCLOR 1254 (10%), Method: PREINCUBATION) was “inactive; negative”. The mutagenic call (Test System: AMES SALMONELLA TYPHIMURIUM, Strain/Indicator: TA1537, Metabolic Activation: NONE, Method: PREINCUBATION) was “inactive; negative” and the mutagenic call (Test System: AMES SALMONELLA TYPHIMURIUM, Strain/Indicator: TA1537, Metabolic Activation: RAT, LIVER, S-9, AROCLOR 1254 (10%), Method: PREINCUBATION) was “inactive; negative”.

In the case of Clc1ccc(CC2CO2)cc1 (centres undefined), the mutagenic call [2] is reported as “active; positive”, the mutagenic call [4] is reported as “active; positive” and the mutagenic call [3] is reported as “active; positive”. The mutagenic call [1] was “active; positive”.

O=C(/C=C/c1ccc([N+](=O)[O-])cc1)c1ccc([N+](=O)[O-])cc1 was tested, and the mutagenic call (Test System: AMES SALMONELLA TYPHIMURIUM, Strain/Indicator: TA98, Metabolic Activation: NONE, Method: STANDARD PLATE) was “active; positive”, the mutagenic call (Test System: AMES SALMONELLA TYPHIMURIUM, Strain/Indicator: TA98, Metabolic Activation: RAT, LIVER, S-9, AROCLOR 1254, Method: STANDARD PLATE) was “inactive; negative” and the mutagenic call [4] was “inactive; negative”. The mutagenic call (Test System: AMES SALMONELLA TYPHIMURIUM, Strain/Indicator: TA100, Metabolic Activation: RAT, LIVER, S-9, AROCLOR 1254, Method: STANDARD PLATE) was “inactive; negative”.

Cc1ccc([N+](=O)[O-])cc1N=[N+]([O-])c1cc([N+](=O)[O-])ccc1C was tested, and the mutagenic call (Test System: AMES SALMONELLA TYPHIMURIUM, Strain/Indicator: TA98, Metabolic Activation: NONE, Method: SUSPENSION/PLATE) was “inactive; negative”, the mutagenic call (Test System: AMES SALMONELLA TYPHIMURIUM, Strain/Indicator: TA98, Metabolic Activation: RAT, LIVER, S-9, PHENOBARBITAL AND 5,6-BENZOFLAVONE, Method: SUSPENSION/PLATE) was “inactive; negative” and the mutagenic call (Test System: AMES SALMONELLA TYPHIMURIUM, Strain/Indicator: TA100, Metabolic Activation: NONE, Method: SUSPENSION/PLATE) was “inactive; negative”. The mutagenic call (Test System: AMES SALMONELLA TYPHIMURIUM, Strain/Indicator: TA100, Metabolic Activation: RAT, LIVER, S-9, PHENOBARBITAL AND 5,6-BENZOFLAVONE, Method: SUSPENSION/PLATE) was “inactive; negative”.

For CC(C)C(=O)Nc1ccccc1, the mutagenic call [4] was “inactive; negative”.

With CCN(CC)Cc1cc(Nc2ccnc3cc(Cl)ccc23)ccc1O the mutagenic call (Test System: AMES SALMONELLA TYPHIMURIUM, Strain/Indicator: TA97A, Metabolic Activation: NONE, Method: STANDARD PLATE) was “inactive; negative”, the mutagenic call (Test System: AMES SALMONELLA TYPHIMURIUM, Strain/Indicator: TA97A, Metabolic Activation: RAT LIVER S-9, PHENOBARBITAL, Method: STANDARD PLATE) was “inactive; negative” and the mutagenic call [4] was “inactive; negative”. For the same compound, the mutagenic call (Test System: AMES SALMONELLA TYPHIMURIUM, Strain/Indicator: TA100, Metabolic Activation: RAT LIVER S-9, PHENOBARBITAL, Method: STANDARD PLATE) was “inactive; negative”, the mutagenic call (Test System: AMES SALMONELLA TYPHIMURIUM, Strain/Indicator: TA102, Metabolic Activation: NONE, Method: STANDARD PLATE) was “inactive; negative” and the mutagenic call (Test System: AMES SALMONELLA TYPHIMURIUM, Strain/Indicator: TA102, Metabolic Activation: RAT LIVER S-9, PHENOBARBITAL, Method: STANDARD PLATE) was “inactive; negative”. The mutagenic call (Test System: AMES SALMONELLA TYPHIMURIUM, Strain/Indicator: TA104, Metabolic Activation: NONE, Method: STANDARD PLATE) was “inactive; negative” and the mutagenic call (Test System: AMES SALMONELLA TYPHIMURIUM, Strain/Indicator: TA104, Metabolic Activation: RAT LIVER S-9, PHENOBARBITAL, Method: STANDARD PLATE) was “inactive; negative”.
